{"source": "patent EP1671644A2", "about": "“Pharmaceutical compositions containing Lysostaphin alone or in combination with an antibiiotic for the treatment of Staphylococcal infections” (priority 1997, dated 1999)", "key": {"S. aureus strain AG461": {"system": "S. aureus strain AG461", "assay": "Time-kill experiment (Figure 1)", "format": "cell-based, Staphylococcus aureus", "settings": "vancomycin 2 and 16 µg/ml (one and eight times MIC); three hours of contact", "description": "The bactericidal activity of lysostaphin against S. aureus was also studied by means of time-kill experiments. In one experiment of this type, S. aureus strain AG461, a methicillin-resistant clinical isolate from Genoa, Italy, was inoculated into Mueller-Hinton broth (Difco) and grown at 37°C with gentle shaking until it reached approximately 10^8 viable cells per ml (CFU/ml), as estimated from the absorbance of the culture at 600 nm. The culture was then diluted with fresh broth to approximately 10^6 CFU/ml and 5 ml aliquots were placed in several different flasks for exposure to different concentrations of antibacterial agents. Incubation was continued, with gentle shaking, at 37°C, and samples were withdrawn at intervals for determination of viable cells. Serial 10-fold dilutions of the samples were made in sterile saline (0.9% NaCl in distilled water) and duplicate 0.1 ml aliquots of appropriate dilutions were plated on Tryptic Soy agar plates (Remel) using the agar inclusion method. (In this method, the aliquot to be plated is added to 2.5 ml of top agar, which is mixed and poured onto a plate. Top agar consisted of molten Tryptic Soy agar (Difco) diluted 2-fold with Difco Tryptic Soy broth to give a final agar concentration of 0.75%, w/v.) The plates were incubated for 24-48 hours at 36°C and the colonies were counted manually. […]"}, "S. aureus Smith": {"system": "S. aureus Smith", "assay": "Acute infection model in mice (intraperitoneal infection)", "format": "in vivo", "description": "The efficacy of lysostaphin was compared to that of vancomycin in an acute infection model in mice. S. aureus Smith was cultured overnight, with moderate agitation, in Veal Infusion broth (Difco) and diluted in broth containing 5% hog gastric mucin (Difco). Male Swiss~Webster mice (Taconic Farms, Germantown, NY) weighing approximately 20 grams were infected intraperitoneally with 10^5-10^6 viable cells, approximately tenfold the inoculum that reproducibly killed all untreated animals within 48 h. There were six mice in each treatment group. Lysostaphin was administered intravenously (in 0.1 ml 5% dextrose for injection) or subcutaneously (in 0.2 ml), within 10 min of infection. Vancomycin was administered subcutaneously."}, "[1]": {"system": "methicillin-resistant S. aureus strain (MRSA 27619)", "assay": "Experimental aortic valve endocarditis in rabbits", "format": "in vivo", "settings": "vancomycin 30 mg/kg twice daily iv, three days", "description": "Aortic valve endocarditis was established in New Zealand white rabbits weighing approximately 3 kg. Rabbits were anesthetized and the right carotid artery surgically exposed and cannulated with a polyethylene catheter which was advanced into the left ventricle of the heart. After at least 24 h, the rabbits were infected intravenously with 10^6-10^7 cells of a methicillin-resistant S. aureus strain (MRSA 27619). Twenty-four hours later, the animals were randomly assigned to different treatment groups: untreated control (9 rabbits); positive control, vancomycin 30 mg/kg twice daily (15); lysostaphin 5 mg/kg three times daily (11); lysostaphin 5 mg/kg once daily (10); lysostaphin 5 mg/kg once daily + vancomycin 30 mg/kg twice daily (11). Any rabbits whose infection was not confirmed by pre-treatment blood culture were eliminated.\nAll treatments were intravenous and were carried out for three days. The state of health of the rabbits was assessed at intervals. The rabbits were sacrificed 18 h after the last treatment. Aortic vegetations were removed and weighed and processed to determine the number of viable bacteria, expressed as log10CFU/gram. The limit of detection is 10^2 CFU/gram (log10CFU/gram=2.0). The mean titers of bacteria per gram were compared by one-way analysis of variance. The Student-Newman-Keuls test was used to adjust for multiple comparisons. […]"}, "[2]": {"system": "methicillin-resistant VISA strain of S. aureus", "assay": "Endocarditis in rabbits caused by a VISA strain", "format": "in vivo", "settings": "vancomycin 30 mg/kg twice daily"}}, "note": "Marks after values point to notes of the source that are not given here.", "data": [{"smiles": "CN[C@H](CC(C)C)C(=O)N[C@H]1C(=O)N[C@@H](CC(N)=O)C(=O)N[C@H]2C(=O)N[C@H]3C(=O)N[C@H](C(=O)N[C@H](C(=O)O)c4cc(O)cc(O)c4-c4cc3ccc4O)[C@H](O)c3ccc(c(Cl)c3)Oc3cc2cc(c3O[C@@H]2O[C@H](CO)[C@@H](O)[C@H](O)[C@H]2O[C@H]2C[C@](C)(N)[C@H](O)[C@H](C)O2)Oc2ccc(cc2Cl)[C@H]1O", "note": "[vancomycin]", "values": [{"measurement": "bactericidal action", "setting": "S. aureus strain AG461", "result": "very little killing of the bacteria"}, {"measurement": "% survival", "setting": "S. aureus Smith; 0.63 mg/kg sc", "result": 0, "unit": "%"}, {"measurement": "% survival", "setting": "S. aureus Smith; 1.25 mg/kg sc", "result": 83, "unit": "%"}, {"measurement": "% survival", "setting": "S. aureus Smith; 2.5 mg/kg sc", "result": 100, "unit": "%"}, {"measurement": "% survival", "setting": "S. aureus Smith; 5 mg/kg sc", "result": 100, "unit": "%"}, {"measurement": "% survival", "setting": "S. aureus Smith; Table 4 experiment, 0.63 mg/kg, route not given", "result": 0, "unit": "%"}, {"measurement": "% survival", "setting": "S. aureus Smith; Table 4 experiment, 1.25 mg/kg, route not given", "result": 83, "unit": "%"}, {"measurement": "% survival", "setting": "S. aureus Smith; Table 4 experiment, 2.5 mg/kg, route not given", "result": 100, "unit": "%"}, {"measurement": "Mean log10CFU/gram of vegetation ± standard deviation", "setting": "[1]", "result": "5.91 ± 1.67^a log10CFU/gram"}, {"measurement": "Number of sterile vegetations /total animals treated", "setting": "[1]", "result": "0/15"}, {"measurement": "CFU/g vegetation", "setting": "[2]; expressed as log10 of the mean", "result": 6.95, "unit": "CFU/g vegetation"}, {"measurement": "sterile/total vegetations", "setting": "[2]", "result": "0/13"}]}]}
